Key:
NF-κB = NF-κB SEAP reporter gene assay in INS-1E cells; format: cell-based, rat; details: printed "at 504" (FIG. 2B: 5 μM); cytokine cocktail 10 ng/mL TNFα, 5 ng/mL IL-1β, 10 ng/mL IFN-γ; 24 hours
Method: Briefly, a plasmid construct containing NF-kB promoter and SEAP gene was transferred into INS-1E cells by lipofectamine. SEAP was then expressed and secreted into culture supernatant and allowed […] detection using a substrate PNPP under 405 nm. […] NF-kB activity was measured 24 hours after addition of cytokine cocktail (10 ng/mL TNFα, 5 ng/mL IL-1β and 10 ng/mL IFN-γ) alone or with JP-3-110 (5 μM) or TNP (5 μM) or MPA (5 μM). Blank, no cytokine stimulation. Cyt, cytokine cocktail. Results are presented as the mean±S.D., n=3.
INS-1E cells which were stably transfected with the SEAP gene containing the response-element for NF-κB were used to screen for anti-inflammatory activity. Briefly, 10^6 cells/well were seeded overnight followed by treatment with 10 ng/mL human recombinant TNFα and either TNP or hybrid drug JP-3-110 (1 μM). SEAP activity was measured 18 h later in supernatant samples (50 µL) using the NF-κB SEAPorter™ Assay Kit (IMGENEX, San Diego, Calif.) and a microplate luminometer. SEAP activity was normalized to the total protein content.

human CD3+ T cells = assay: Mixed lymphocyte reaction: proliferation of PHA-stimulated T cells; format: cell-based; details: data not shown; TNP 5 μM
Method: Briefly, human peripheral blood mononuclear cells PBMCs were isolated from human buffy coat using Ficoll-Paque. […] Results are presented as the mean±S.D., n=6.
PBMCs were isolated using Ficoll Paque. T cells were isolated from PBMCs using Dynabeads for. T cells were stimulated with PHA (1 μg/ml) for 24 h alone or in the presence of TNP (5 μM) or JP-3-110 (5 μM) for additional 4 days. The total number of PBMCs was measured using T4 Automatic Cell Counter (Nexcelom, Lawrence, Mass.). The extent of T cell activation was determined by measuring the level of IL-2, IL-2sRa, TNFα and IFN-γ in the medium using ELISA at indicated time.
Mixed lymphocytes reaction was used to determine the immunosuppressive effects of MPA and JP-3-110. T cells were purified using dynabeads from peripheral blood mononuclear cells (PBMCs), which were initially isolated from human buffy coat (FIG. 8A). […] The levels of IL-2, IL-2sRa, TNFα and IFNγ were detected by ELISA to study the effects of JP-3-110 and MPA on T cell activation.

Question: Which “NF-κB activities in INS-1E cells” value (NF-κB) does the source give for “(1S,3R,4S,5R)—N-butyl-1,3,4,5-tetrahydroxycyclohexane-1-carboxamide [TNP, reference compound]” here?
Answer: Its value is “significantly reduced”.

Question: What about the “immunosuppressive effect in mixed lymphocytes reaction” value (human CD3+ T cells) of the same substance?
Answer: The value was “did not observe any immunosuppressive effect”.

Source: patent publication US10369133B2, “Immunosuppressive compounds and therapeutics” (UNIVERSITY OF TENNESSEE RESEARCH FOUNDATION, priority 2013, dated 2019)
